The subject of data set [1] is mice. The experiment in a line: acute IV toxicity in the mouse (single dose). It counts as in vivo. As to conditions: Mouse CD2F1, 12 F, 21 days.
The nature of data set [2]: therapeutic studies (not specified further). Format: in vivo.
For data set [3], the system named is LM breast CA. The experiment in a line: in vitro cytotoxic activity against LM breast CA. It counts as cell-based. The text has this: (§1) In one embodiment, preferred therapeutic agents are identified herein by assessing their in vitro cytotoxic activity against cultured model cancer cell lines. […] Suitable cell lines against which the disclosed compounds may be assessed are well known to those of skill in the art and include, by way of example, KG breast CA, LM breast CA and 9L rat glioma. […] The KG breast cancer explants were obtained from surgical biopsies of chest wall metastases from breast cancer. The patient had failed on extensive standard and experimental chemo/hormone and radiation therapy protocols. Minced biopsy specimens were grown in RPMI plus 10% FBS with antibiotics at 37° C. and 5% CO2 atmosphere. DM-CHOC-PEN was tested at 0.5-5 μg/mL concentrations in medium and incubated for 24 hrs.

The test system of data set [4] is 9L rat glioma. The experiment in a line: in vitro cytotoxic activity against 9L rat glioma. It counts as cell-based.
Text: as §1

The test system of data set [5] is Beagle dogs. Put plainly: acute IV toxicity in the dog. Format: in vivo. As to conditions: for Observations (mortality): 2 M 2 F. Here is the method:
This example describes the acute toxicity of DM-CHOC-PEN in dogs. An acute study was performed in adult Beagle dogs, which consisted of: DM-CHOC-PEN administered once IV. Sixteen (16) adult beagle dogs (8 male and 8 female) divided into three groups received a single intravenous injection of DM-CHOC-PEN. The DM-CHOC-PEN was administered in 0.3% Klucel+1.92% Tween® 80, The results are recorded in Table 6.

The subject of data set [6] is KG breast CA. Put plainly: in vitro cytotoxic activity against KG breast cancer explants. Format: cell-based, human.
Text: as §1

For data set [7], the system named is mice. Put plainly: acute IV toxicity in the mouse (single dose). As to conditions: for Observations (mortality): 5 M 5 F. It counts as in vivo. Here is the method: This example describes the toxicity of DM-CHOC-PEN to mice as administered via intravenous injections and oral gavage. For the intravenous study, the dose range-finding phase consisted of five treatment groups (one male mouse/group) that received the test article as a single dose at respective dose levels of 50 (dose volume of 5 mL/kg), 100 (dose volume of 10 mL/kg), 150 (dose volume of 15 mL/kg), 250 (dose volume of 25 mL/kg), and 500 mg/kg (intended total dose volume of 50 mL/kg). The 500 mg/kg dose was intended to be a split dose that was to be administered in equal fractions (25 mL/kg/dose) approximately four hours apart (mortality precluded administration of the second portion of the dose). An additional group (one male mouse) served as the control and received the vehicle, soybean oil, at a dose volume of 25 mL/kg using the same route of administration as the treated groups. On Day 4, following the three-day observation period, all surviving dose range-finding animals were euthanized and discarded.
The main study phase consisted of five treatment groups (five mice/sex/group) that received a single dose of the test article at respective dose levels of 50, 100, 200, 400, and 600 mg/kg. An additional group (five mice/sex) served as the control and received the vehicle, 0.3% Klucel+1.92% Tween® 80, using the same dosing regimen as the treated groups. All doses were at a constant volume of 25 mL/kg.
Observations for mortality, morbidity, and the availability of food and water were conducted twice daily for all animals. Observations for clinical signs were conducted daily during the study (approximately one and four hours post-dose on Day 1 and then once daily). Body weights were measured on all animals after receipt, prior to randomization and on Day 1. In addition, body weights were measured for all surviving main study phase animals on Days 7 and 14. Macroscopic evaluations were performed on each main study phase animal at necropsy (Day 15).

Data set [8] relates to MX-1 Breast Cancer. Put plainly: antitumor evaluation vs. MX-1 breast cancer xenograft.
In data set [9] the test system is U251 GBM. Format: in vivo. As to conditions: for ILS (percentage increased length of survival in days vs. control): U251 GBM in cerebrum, IP qd 1-5, dose not given; for LTC (long-term cure, >30-35 days): U251 GBM, cured/animals. Here is the method:
(§2) U251 and D54 tumors, 10^6 cultured cells in 0.03 ml volume were injected via a 25-gauge stainless steel 0.25 inch needle into the right cerebrum with angling toward the center of the brain. […] Doses varied to include an ca LD10 as described above for the MX-1 tumor. BCNU was used clinically to treated advanced gliomas and will be used as a positive control at optimal doses of 17, 10 and 6 mg/kg on a qd 1-5 schedule, since it is also the clinical standard for brain tumors and is very active against this tumor model. DM-PEN at 60, 90 and 135 mg/kg on the same schedule was included as a comparative control. Antitumor activity was assessed on the basis of survival, with the medial day of death of the controls (10 mice) typically being ca. 30-35 days. The in vivo tumor inhibition results are recorded in Table 3.

Data set [10] deals with mice. Put plainly: sub-acute oral mouse toxicity study. As to conditions: daily for five days, 800-2000 mg/kg.
Experimental: Sub-acute oral mouse toxicity study was conducted at MPI Research, Mattawan, Mich., under GLP conditions in male/female mice.
Data set [11] concerns D54 Glioblastoma. Put plainly: antitumor evaluation vs. intracerebrally implanted D54 glioblastoma xenograft. It counts as in vivo, mice. As to conditions: D54 IC, 200 mg/kg IP q1d x 5d. Here is the method:
as §2

Data set [12] relates to patients with advanced solid tumors. As to conditions: one hour infusion for 5 consecutive days; dysmetria, ataxia, vertigo; cited from earlier work.

The text below walks through data of patent US9422241B2, “Demethylpenclomedine analogs and their use as anti-cancer agents” (priority 2005, dated 2016).

Several values for one entry are separate records, joined by “and”; a condition that tells them apart may be missing. Equal values may be shown once. Entries after “also recorded” stand apart in the source; their conditions may differ. Read-outs that look alike come from different tables or passages of the source.

As for “4-Demethyl cholesteryloxycarbonylpenclomedine [DM-CHOC-PEN]”, the LD50 (as a rule, the dose at which mortality reaches 50%) in data set [1] was 390 mg/kg; in [5] (Dog, Beagle, IV single dose, 10 days) it was greater than 30 mg/kg; in data set [7] (Mouse, IV single dose) it was 390 mg/kg. In addition, in [2], the “dosing range in which responses were seen” value lay within 150 to 225 mg/kg. The “in vitro IC50” value came out at 1.0±0.5 micrograms/mL in data set [3], 1.1±0.4 micrograms/mL in data set [4] and 0.7±0.4 micrograms/mL in data set [6] (KG breast CA). Further, the “Acute IV (LD10)” value in data set [5] (Dog) was greater than 30 mg/kg. For the same molecule, the “Observations (mortality)” value in data set [5] (IV once 10 mg/kg) is “No deaths”; in [5] (IV once 20 mg/kg), “No deaths”; in [5] (IV once 30 mg/kg), “No deaths”; in data set [7] (single IV dose 50 mg/kg, 50 mg/kg), 1 of 10 and 0 M and 1 F died; in [7] (single IV dose 100 mg/kg, 100 mg/kg), “No animals died; also recorded: No deaths”; in data set [7] (single IV dose 200 mg/kg, 200 mg/kg), 1 of 10 and 0 M and 1 F died. Also, the “Observations (mortality)” value in [7] (single IV dose 400 mg/kg, 400 mg/kg) was 7 of 10 and 4 M and 3 F died; in [7] (single IV dose 600 mg/kg, 600 mg/kg) it was 8 of 10 and 5 M and 3 F died. The “Comparable Human IV Dosage” value is recorded as greater than 600 mg/m^2 in data set [5] (estimated from dog LD10) and 39 mg/m^2 in data set [7] (estimated from mouse LD10). Also, the “effects directly related to the test article” value in data set [5] (single IV injection 10, 20 and 30 mg/kg) was “no effects that were directly related to the test article”. Moreover, the IC50 – broadly, the point on the concentration scale where inhibition reaches its midpoint – in data set [6] (KG breast cancer explants, 0.5-5 μg/mL in medium, incubated 24 hrs) was found to be 1.1 ± 0.5 µg/mL. The “macroscopic findings at necropsy” value in [7] (Day 15) is on record as “No macroscopic findings”. In [7] (Mouse, IV, 14-day study), the “time until the last death” value fell in the range of 2 to 14 days. Besides, the body weight effects result in data set [7] (mice surviving the 14-day observation period vs controls) was “No definitively clear treatment-related body effects”. The “intravenous LD10” value in [7] (mice, combined sexes, single dose) worked out at 136 mg/kg. Further, the “intravenous LD50” value in [7] (mice, combined sexes, 95% confidence limits 298 to 502 mg/kg) is 385 mg/kg. Moreover, in data set [7] (single IV dose 50-600 mg/kg, both sexes, generally dose-dependent), the clinical signs entry is “decreased activity, rapid/difficult/slow/shallow breathing, limbs splayed, tremors and skin cold to touch”. In addition, the “deaths in dose range-finding phase” value in [7] (single IV dose in soybean oil, at 0, 100, 250 and 500 mg/kg, one male mouse/group) was “immediate deaths”. Further, the “% Increase in Life Span (% ILS)” value in [8] (MX-1 IC, 25 mg/kg IP q1d x 5d) is “+6%”; in data set [8] (MX-1 IC, 50 mg/kg IP q1d x 5d) it was “+20%”; in data set [9] (U251 IC, 135 mg/kg IP q1d x 5d), “+29%”; in data set [11], “+3%”. In addition, the “% Long Term Survivors (% LTS)” value in [8] (MX-1 IC, printed on the 25 mg/kg line (25 and 50 mg/kg tested), IP q1d x 5d) was 17% and 17 (1/6 CR) %; in [9] (U251 IC, 135 mg/kg IP q1d x 5d, LTS >90 days, 135 mg/kg) it was 20% and 20 (1/5 CR) %; in data set [11] it was 20 (1/5 CR) %. For the same molecule, the weight loss entry in [8] (MX-1 tumor mice, daily dosing for 5 days) is listed as “no weight loss”; in data set [9] (U251 xenograft mice, IP daily x 5), “no weight loss”. Moreover, in data set [9] (DM-CHOC-PEN treatment regimen in the animal studies), the neurotoxicity result is listed as “did not demonstrate neurotoxicity”. The long-term survivors in [9] (Table 3, U251) was 20%. Also, the “ILS (percentage increased length of survival in days vs. control)” value in data set [9] (Table 3) is given as 29%. Further, the “LTC (long-term cure, >30-35 days)” value in data set [9] (Table 3) was “⅕”. Further, the “increase in survival compared to DM-PEN” value in data set [9] (U251, IP daily x 5 days) is “two-fold”. For the same molecule, the tumor burden reduction entry in [9] (U251, IP daily x 5 days) is reported as “log107”. In addition, in data set [10], the mortality entry is recorded as “Only one death occurred at 800 mg/kg”. For the same molecule, the seizures result in data set [10] is recorded as “No seizures noted”. Besides, in data set [10] (similar in controls), the clinical observations entry was “some degree of lethargy and unkept appearance”.

In the case of `O=NN(CCCl)C(=O)NCCCl` [BCNU, reference compound], in data set [9] (U251, BCNU positive control), the “% ILS” value is listed as “+92%”.

Turning to `COc1[nH]c(C(Cl)(Cl)Cl)c(Cl)c(=O)c1Cl` [DM-PEN, 4-demethylpenclomedine, reference compound], the activity in vitro result in [6] (requires prior activation per the liver) was “not active in vitro”. In data set [8] (MX-1 IC, 60 mg/kg IP q1d x 5d), the “% ILS” value is on record as 12% and the “% LTS (given as survivors/animals)” value is recorded as 0/5. Further, in data set [9] (Table 3), the “ILS (percentage increased length of survival in days vs. control)” value came to 13% and the “LTC (long-term cure, >30-35 days)” value came to 0. The complete responders entry in data set [9] (Table 4 tumors, daily dosing for 5 days) is “did not produce any complete responders”. In data set [9] (U251 IC, 90 mg/kg IP q1d x 5d), the “% ILS” value is recorded as 17% and the “% LTS (given as survivors/animals)” value was 0/5.

Regarding `COc1nc(C(Cl)(Cl)Cl)c(Cl)c(OC)c1Cl` [PEN, 3,5-dichloro-4,6-dimethoxy-2-(trichloromethyl)-pyridine], the “neurotoxicity in clinical trials” value in data set [12] is “dose-limiting neurotoxicity was observed”.
